Assay results: patent publication US20180282279A1, “Pantothenamide Analogues” (Radboud Universitair Medisch Centrum, priority 2014, published 2018)
Values after ≈ are worked out from the molar mass of the structure shown. “Also recorded” adds a separate entry of the source. Like-named read-outs stand apart in the source and are kept apart here.

Experiments:
[1] = system: fetal bovine serum as a source of pantetheinase activity; assay: Stability in vitro in fetal bovine serum (LC-MS); assay type: in vitro ADME
Experimental: FIG. 1: Inverted amides are stable in serum. The stability of pantothenamide CXP18.3-002 (A-C) and its corresponding inverted amide CXP18.6-006 (D-F) was measured using LC-MS analysis after overnight incubation in buffer (A and D), buffer with 10% fetal bovine serum (B and E) and buffer with 10% FBS supplemented with the vanin inhibitor RR6 (C-F). Fetal bovine serum contains a high level of vanin (pantetheinase) activity. Both compounds are stable after incubation in buffer alone (figure A and D). The small peaks in the amine channels, with molecular masses of 163 (A) en 191 (D), are either the result of disruption of compound during ionization (CXP18.3-002-sample) or background from the buffer (CXP18.6-006-sample). […] Explanation of masses and compounds: CXP18.3-002, exact mass 322.189, found at mass 305 (—H2O (18)+H^+(1)). Amine from CXP18.3-002, exact mass 121.089, found at 163 (+ACN(41) +H^+(1)). Pantothenic acid, exact mass 219.111, found at mass 220 (+H^+(1)). RR6, exact mass 293.163, found at 294 (+H^+(1)). CXP18.6-006, exact mass 322.189, found at mass 305 (—H2O (18) +H^+(1)). Amine from CXP18.6-006, exact mass 150.068, found at 151 (+H^+(1)).
Conventional pantothenamides are hydrolysed by pantetheinases in body fluids as shown before (Jansen et al 2013) thereby losing their antimicrobial activity (Jansen et al 2013, Spry et al 2013, PLoS One 8:e54974). Bioisosteric pantothenamides retained their in vitro antimicrobial activity in the presence of serum, as will be shown in the next examples. To examine the stability of analogues in vitro, CXP18.3-002 and its bioisostere CXP18.6-006 were incubated for 16 h at room temperature in PBS with 10% fetal bovine serum as a source of pantetheinase activity. Samples were taken and analyzed by LC-MS using a Shimadzu LC10ATvp HPLC coupled to a Shimadzu LCMS2010 A mass spectrometer. […] The hydrolysis of the pantothenamides by fetal bovine serum could be inhibited by the addition of RR6, a potent inhibitor of pantetheinase activity, as described before (Jansen en al 2013).

[2] = system: Staphylococcus aureus; assay: Bacterial growth assay and MIC determination, S. aureus; assay type: cell-based; details: Staphylococcus aureus
Experimental: Strains of Escherichia coli, Staphylococcus aureus and Staphylococcus epidermidis, were grown overnight in 1% Bacto tryptone medium (BD, Sparks, Md.). Streptococcus pyogenes was grown overnight in Bacto Todd Hewitt Broth medium (BD, Sparks, Md.). Cultures were then diluted 1:1,000 in fresh assay medium supplemented with or without 20% fetal bovine serum (FBS; HyClone, Celbio, Logan, Utah) and added to 96-well sterile enzyme-linked immunosorbent assay (ELISA) plates (100 μl per well). The compounds to be tested were diluted in the medium without serum and added to the bacteria (100 μl per well). Plates were incubated at 37° C., and bacterial growth was monitored over time by reading the optical density at 490 nm using a microplate reader (model 450; Bio-Rad Laboratories Inc., Hercules, Calif.). Streptococcus pneumoniae strains were grown to mid-log phase (OD620 of 0.3) and stored in 15% glycerol at […] till further use. Minimal inhibitory concentration (MIC) of antibiotics was determined according to standard procedures. Bacteria were diluted 10-fold in Mueller-Hinton medium (BD, Sparks, Md.) and added to 96-well sterile ELISA plates (150 μl per well). The compounds to be tested were diluted in the medium without serum and added to the bacteria (150 μl per well). Plates were incubated overnight at 37° C. in 5% CO2. The MIC was defined as the lowest concentration of compound at which no growth was visible with the naked eye.

[3] = system: Streptococcus pneumoniae; assay: MIC determination, S. pneumoniae; assay type: cell-based; details: Streptococcus pneumoniae; S. pneumoniae, serum −; read-out: MIC
Experimental: Streptococcus pneumoniae strains were grown to mid-log phase (OD620 of 0.3) and stored in 15% glycerol at […] till further use. Minimal inhibitory concentration (MIC) of antibiotics was determined according to standard procedures. Bacteria were diluted 10-fold in Mueller-Hinton medium (BD, Sparks, Md.) and added to 96-well sterile ELISA plates (150 μl per well). The compounds to be tested were diluted in the medium without serum and added to the bacteria (150 μl per well). Plates were incubated overnight at 37° C. in 5% CO2. The MIC was defined as the lowest concentration of compound at which no growth was visible with the naked eye.

**Q.** For CC(C)(CO)[C@@H](O)C(=O)NCCNC(=O)CCc1ccccc1 [CXP18.6-006], which “stability in buffer with 10% fetal bovine serum” value ([1]; PBS with 10% FBS, 16 h (overnight), room temperature) is on record?
**A.** remains intact; also recorded: No appreciable degradation

**Q.** And the “stability after overnight incubation in buffer” value ([1]; buffer alone)?
**A.** stable

**Q.** And the “stability in buffer with 10% FBS supplemented with the vanin inhibitor RR6” value ([1]; overnight)?
**A.** had no effect

**Q.** CC(C)(CO)[C@@H](O)C(=O)NCCNC(=O)CCc1ccccc1F [CXP18.6-017] was tested. Which MIC ([2]; S. aureus, serum −, read-out: MIC) did it give?
**A.** 2 µg/mL (≈ 5.88 µM)

**Q.** What about the MIC ([2]; Table 1, most sensitive species S. aureus (SA), read-out: MIC (μg/ml) for most sensitive bacterial species) of the same compound?
**A.** 2 µg/mL (≈ 5.88 µM)

**Q.** And the MIC [3]?
**A.** > 32 µg/mL
